# Laboratory results: patent publication US9980928B2, “Hydroxy aliphatic substituted phenyl aminoalkyl ether derivatives” (PROUS INSTITUTE FOR BIOMEDICAL RESEARCH, S.A., priority 2012, dated 2018)
# Where “and” joins values, the source holds several entries; their conditions need not be identical. Equal values may be shown once.
# Legend:
# [1] = test system: mice; assay: Tail suspension assay in mice; format: in vivo; settings: 90 mg/kg, route not given
# Description: Another method of measuring antidepressant activity that may be used to evaluate the compounds of the present invention is the tail suspension test in mice described in Vogel, H. G. and Vogel, W. H. (Eds.) Drug Discovery and Evaluation, Springer-Verlag Berlin Heidelberg, 1997) pp. 304-3059). The mouse tail suspension assay was conducted 60 minutes after dosing. The duration of immobility was recorded for a period of 5 minutes after tail suspension was initiated, and reduction in the duration of immobility by ≥50% relative to the control group indicated antidepressant activity. Statistical analysis was also performed by using one-way ANOVA followed by Dunnett's test to compare the data of test compound-treated and vehicle control groups. Significance was considered to be P<0.05.
# [2] = target: uptake of norepinephrine (Homo sapiens, UniProt P23975); assay: Uptake inhibition of norepinephrine, cellular assay; format: cell-based; settings: read-out: Norepinephrine reuptake inhibition (IC50 μM)
# Description: (§1) The effect of the compounds of the present invention as inhibitors of the uptake of norepinephrine and serotonin in cellular assays at concentrations that range from […] to 1 nM is determined following the methods described in Galli, A. et al. J Exp Biol 1995, 198(Pt. 10): 2197-212 and Gu, H. et al. J Biol Chem. 1994, 269(10):7124-30.
# [3] = target: uptake of serotonin (Homo sapiens, UniProt P31645); assay: Uptake inhibition of serotonin, cellular assay; format: cell-based; settings: read-out: Serotonin reuptake inhibition (IC50 μM)
# Description: as §1
# [4] = test system: mice; assay: Forced swimming test in mice; format: in vivo
# Description: The antidepressant activity was determined using the forced swimming test described in Porsolt, R.-D. et al. Arch Int Pharmacodyn 1977, 229(2): 327-36.
# Reduction in the duration of immobility by 50% or more relative to the control group indicates possible antidepressant activity. Also, one-way ANOVA followed by Dunnett's test was applied to compare the test compound-treated and vehicle control groups. Significance was considered to be P<0.05.
# uptake of norepinephrine, sequence (P23975 whole entry): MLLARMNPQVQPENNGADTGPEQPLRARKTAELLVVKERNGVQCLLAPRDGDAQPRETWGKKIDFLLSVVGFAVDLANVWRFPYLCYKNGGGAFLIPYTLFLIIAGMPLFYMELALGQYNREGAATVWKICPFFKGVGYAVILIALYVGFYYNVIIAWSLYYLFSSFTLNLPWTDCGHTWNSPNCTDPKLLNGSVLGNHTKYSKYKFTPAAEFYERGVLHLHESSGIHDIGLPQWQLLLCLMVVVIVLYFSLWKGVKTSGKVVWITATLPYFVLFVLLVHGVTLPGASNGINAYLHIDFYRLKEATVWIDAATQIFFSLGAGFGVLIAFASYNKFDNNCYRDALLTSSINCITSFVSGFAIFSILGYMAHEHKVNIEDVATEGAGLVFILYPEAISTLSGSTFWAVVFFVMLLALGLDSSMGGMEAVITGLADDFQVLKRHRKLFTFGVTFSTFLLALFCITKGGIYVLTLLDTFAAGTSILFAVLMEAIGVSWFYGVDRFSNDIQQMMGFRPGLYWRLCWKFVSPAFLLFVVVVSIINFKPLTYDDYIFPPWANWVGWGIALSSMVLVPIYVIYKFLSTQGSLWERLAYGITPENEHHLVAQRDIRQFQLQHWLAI
# uptake of serotonin, sequence (P31645 whole entry): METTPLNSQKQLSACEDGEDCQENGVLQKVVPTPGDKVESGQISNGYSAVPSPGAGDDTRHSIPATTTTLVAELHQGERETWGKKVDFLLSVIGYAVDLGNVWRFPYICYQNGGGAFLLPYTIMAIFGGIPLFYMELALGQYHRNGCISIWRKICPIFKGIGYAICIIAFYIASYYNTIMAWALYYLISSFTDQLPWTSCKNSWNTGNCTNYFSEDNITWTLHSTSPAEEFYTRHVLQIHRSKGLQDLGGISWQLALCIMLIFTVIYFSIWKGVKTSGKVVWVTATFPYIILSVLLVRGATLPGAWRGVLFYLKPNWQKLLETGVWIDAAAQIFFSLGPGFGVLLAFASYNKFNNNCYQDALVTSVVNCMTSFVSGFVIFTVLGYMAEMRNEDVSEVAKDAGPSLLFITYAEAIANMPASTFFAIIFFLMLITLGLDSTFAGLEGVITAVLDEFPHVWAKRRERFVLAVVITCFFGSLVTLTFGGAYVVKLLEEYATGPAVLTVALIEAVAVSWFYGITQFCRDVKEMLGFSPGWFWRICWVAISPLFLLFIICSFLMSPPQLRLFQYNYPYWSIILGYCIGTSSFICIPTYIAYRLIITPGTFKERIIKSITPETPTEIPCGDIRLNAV
structure (smiles),measurement,setting,value
"CNCCC(Oc1ccc(CCO)cc1)c1ccccc1.Cl (single isomer, unassigned) [Example 2, 2-[4-[3-(Methylamino)-1-phenylpropoxy]phenyl]ethanol hydrochloride]",antidepressant effect (duration of immobility),[1],significant activity
same,IC50,[2],0.0864 µM and 0.086 µM
same,IC50,[3],0.328 µM and 0.348 µM
same,antidepressant activity (duration of immobility),"[4]; 30 mg/kg intraperitoneal, 60 minutes post-dosing",significant antidepressant activity
same,antidepressant activity (duration of immobility),[4]; 90 mg/kg p.o.,significant activity
